Test results from US20100119655A1, “MUSCULAR PROTEIN DENATURATION INHIBITOR, ADDITIVE FOR A FISH MEAT-ORIGIN GROUND MEAT, FISH MEAT-ORIGIN GROUND MEAT CONTAINING THE SAME AND METHOD OF PRODUCING THE SAME” (Nagasaki Prefectural Government, priority 2007, published 2010).

Experiments:
[1] = biological target: T1, myosin (Cyprinus carpio, UniProt Q90339); assay: Heat denaturation of myosin at 35° C., followed by loss of Ca-ATPase activity (denaturation rate constant KD); format: biochemical, carp (Cyprinus carpio); conditions: compound added by 1M; myosin heated at 35° C.; FIG. 1
T1 construct: myofibrils were prepared from dorsal meat of carp (Cyprinus carpio); from tissue; host or cells: dorsal muscle of carp
T1 sequence (Q90339 whole entry): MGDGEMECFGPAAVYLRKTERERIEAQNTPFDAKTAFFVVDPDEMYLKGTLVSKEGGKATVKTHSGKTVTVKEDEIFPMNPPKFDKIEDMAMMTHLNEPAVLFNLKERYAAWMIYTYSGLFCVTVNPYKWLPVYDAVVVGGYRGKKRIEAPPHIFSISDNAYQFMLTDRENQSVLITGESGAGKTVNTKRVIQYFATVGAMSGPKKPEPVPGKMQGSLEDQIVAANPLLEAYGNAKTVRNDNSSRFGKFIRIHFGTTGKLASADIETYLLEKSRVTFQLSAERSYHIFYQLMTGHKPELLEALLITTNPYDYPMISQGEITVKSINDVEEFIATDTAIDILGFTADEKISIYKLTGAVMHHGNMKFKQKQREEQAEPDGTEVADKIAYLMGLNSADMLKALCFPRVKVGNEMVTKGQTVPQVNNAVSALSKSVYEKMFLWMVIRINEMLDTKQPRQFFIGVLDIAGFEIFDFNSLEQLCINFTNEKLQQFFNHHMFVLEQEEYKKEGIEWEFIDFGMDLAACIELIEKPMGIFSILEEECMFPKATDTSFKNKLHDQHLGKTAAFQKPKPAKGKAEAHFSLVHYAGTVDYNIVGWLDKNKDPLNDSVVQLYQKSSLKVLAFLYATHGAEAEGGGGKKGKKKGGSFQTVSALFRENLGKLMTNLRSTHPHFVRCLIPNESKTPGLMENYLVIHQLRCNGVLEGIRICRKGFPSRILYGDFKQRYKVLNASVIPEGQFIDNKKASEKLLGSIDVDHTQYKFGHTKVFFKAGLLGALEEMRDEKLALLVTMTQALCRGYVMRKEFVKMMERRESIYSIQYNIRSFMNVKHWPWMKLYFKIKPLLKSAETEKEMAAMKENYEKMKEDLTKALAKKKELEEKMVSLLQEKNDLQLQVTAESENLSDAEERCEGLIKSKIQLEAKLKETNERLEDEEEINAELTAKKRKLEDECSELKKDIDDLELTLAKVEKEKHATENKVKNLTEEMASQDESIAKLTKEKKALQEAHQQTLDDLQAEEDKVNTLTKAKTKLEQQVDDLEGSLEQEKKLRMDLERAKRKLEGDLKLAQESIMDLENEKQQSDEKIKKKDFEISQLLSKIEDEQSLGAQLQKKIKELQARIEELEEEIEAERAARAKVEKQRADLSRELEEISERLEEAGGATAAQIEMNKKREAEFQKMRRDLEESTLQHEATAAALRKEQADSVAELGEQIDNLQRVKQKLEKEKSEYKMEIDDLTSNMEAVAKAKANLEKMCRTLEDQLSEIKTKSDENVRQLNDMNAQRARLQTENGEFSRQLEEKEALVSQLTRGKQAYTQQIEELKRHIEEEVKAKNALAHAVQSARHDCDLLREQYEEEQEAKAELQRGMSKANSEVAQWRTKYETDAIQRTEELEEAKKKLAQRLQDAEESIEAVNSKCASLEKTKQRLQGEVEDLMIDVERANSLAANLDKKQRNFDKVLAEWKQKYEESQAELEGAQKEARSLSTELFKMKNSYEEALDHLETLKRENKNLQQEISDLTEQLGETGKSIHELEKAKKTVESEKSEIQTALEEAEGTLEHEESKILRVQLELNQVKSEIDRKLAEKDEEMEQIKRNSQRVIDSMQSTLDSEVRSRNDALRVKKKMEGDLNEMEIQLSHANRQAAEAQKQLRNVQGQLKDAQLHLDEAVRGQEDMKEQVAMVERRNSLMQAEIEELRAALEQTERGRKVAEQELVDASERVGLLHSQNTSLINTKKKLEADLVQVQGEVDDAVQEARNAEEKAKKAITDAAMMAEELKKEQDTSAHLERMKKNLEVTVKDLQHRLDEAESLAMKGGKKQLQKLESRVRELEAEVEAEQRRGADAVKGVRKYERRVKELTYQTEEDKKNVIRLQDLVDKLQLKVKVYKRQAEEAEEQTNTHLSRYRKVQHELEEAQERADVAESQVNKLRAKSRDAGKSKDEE
Source text: (§1) In this embodiment, determination of the effect of inhibiting denaturation of fish meat-origin muscular proteins employs a method for calculating a rate of denaturation of myosin based on disappearance of Ca-ATPase activity as bioactivity of myosin {Tohru Oizumi et al.: Gyoruikingenseni-no-kanetsuhensei-ni-taisuru-to-oyobi-toarukohru-no-hogokohka-no-teiryokosatsu (Quantitative Examination of Effect of Protecting Sugars and Sugar Alcohols from Heat Denaturation of Fish Myofibril. Journal of the Japanese Society of Fisheries Science, 47, 901-908 (1981)}. Said method in this embodiment will be described as follows by dividing into a method for determining the effect of inhibiting heat denaturation and a method for determining effect of inhibiting freeze denaturation.
(§2) Firstly, a method for determining the effect of inhibiting heat denaturation is described. […] Then, changes in Ca-ATPase activity of the fish meat-origin muscular proteins heated are analyzed according to a first-order reaction equation to calculate a denaturation rate constant (KD). Ca-ATPase activity is measured by preparing a reaction composition liquid composed of 0.5M KCl, 25 mM Tris-maleate (pH 7.0), 5 mM CaCl2, 1 mM ATP and 0.2 to 0.3 mg/ml of fish meat-origin muscular proteins subjected to heating and ice cold and determining free inorganic phosphate quantitatively. Then, denaturation rate constant is calculated from Ca-ATPase activity obtained and heating time. Consequently, if the denaturation rate constant is smaller, the effect of inhibiting denaturation of fish meat-origin muscular proteins is significant, and if the denaturation rate constant is larger, the effect of inhibiting denaturation of fish meat-origin muscular proteins is small.
After myofibrils were prepared from dorsal meat of carp (Cyprinus carpio) according to a method by Noboru Katoh et al. {Noboru Katoh et al.: Gyruikingenseni-ATPase-no-seikagakuteki-kenkyu (Biochemical Research of Fish Myofibrillary ATPase). Journal of the Japanese Society of Fisheries Science, 43, 857-867 (1977)}, the myofibrils were dissolved in 0.5M KCl in the presence of ATP-Mg and 40 to 55% ammonium sulfate fraction was used as myosin by ammonium sulfate fractionation. […] After 5% perchloric acid was added thereto to stop the reaction and filter the product, free inorganic phosphate was subjected to colorimetric determination by phosphomolybdic acid method to calculate a logarithmic value of denaturation rate constant.

[2] = test system: myofibrillar proteins; assay: Freeze denaturation of myofibrillar proteins, remaining Ca-ATPase activity after cryopreservation at −20° C.; format: biochemical, carp (Cyprinus carpio); conditions: approximately 1 month, FIG. 3
Protocol: Next, a method for determining the effect of inhibiting freeze denaturation will be described. […] In this case, a comparison is made not by an absolute value of denaturation rate constant but a relative value thereof. The measurement of Ca-ATPase activity is the same as above.
The myofibrils were taken approximately 1 month later and added to 0.5M KCl, 25 mM Tris-maleate (pH 7.0), 5 mM CaCl2 and 1 mM ATP to prepare a reaction composition liquid to be reacted at 25° C. After 5% perchloric acid was added thereto to stop the reaction and filter the product, free inorganic phosphate was subjected to colorimetric determination by phosphomolybdic acid method to calculate Ca-ATPase activity and analyze the extent of denaturation observed from the decline of Ca-ATPase activity.

[3] = test system: myofibrillar proteins; assay: Heat denaturation of myofibrillar proteins at 42° C., followed by loss of Ca-ATPase activity (denaturation rate constant KD); format: biochemical, carp (Cyprinus carpio); conditions: for decline of rate of denaturation of myofibrillar proteins (logarithmic value of denaturation rate constant KD): compound added by 1M, myofibrils heated at 42° C., FIG. 2
Source text: as §1, §2
After 5% perchloric acid was added thereto to stop the reaction and filter the product, free inorganic phosphate was subjected to colorimetric determination by phosphomolybdic acid method to calculate a logarithmic value of denaturation rate constant.

[4] = test system: myofibrillar proteins; conditions: relative to sorbitol; Non-Patent Document 1; cited from earlier work
[5] = test system: myofibrillar proteins; assay: Dissolution of myofibrillar proteins, soluble proteins in supernatant after centrifugal separation; format: biochemical, carp (Cyprinus carpio); conditions: addition of 0.6M; FIG. 4

Row | Structure (SMILES) | decline of rate of denaturation of myosin (logarithmic value of denaturation rate constant KD) [1] | effect of inhibiting freeze denaturation (Ca-ATPase activity), ranking [2] | decline of rate of denaturation of myofibrillar proteins (logarithmic value of denaturation rate constant KD) [3] | effect of stabilizing myofibrillar proteins, times sodium gluconate ([3]; relative to sodium gluconate, worked out from own data and Non-Patent Document 1) | inhibition of heat denaturation of myofibrillar proteins, times sorbitol [4] | dissolution of myofibrillar proteins at 0.6M, in words [5]
1 | N[C@@H](CCC(=O)[O-])C(=O)[O-].[Na+].[Na+] [sodium glutamate] | 1.7 | strongest effect of inhibiting freeze denaturation | 0.9 |  |  | 
2 | O=C([O-])CC(O)(CC(=O)[O-])C(=O)[O-].[Na+].[Na+].[Na+] [sodium citrate] | 1.7 | strongest effect of inhibiting freeze denaturation | 0.9 | at least 1.3 times |  | 
3 | O=C([O-])[C@H](O)[C@@H](O)[C@H](O)[C@H](O)CO.[Na+] [sodium gluconate] |  |  |  |  | about 1.5 times | 
4 | CC(=O)[O-].[Na+] [sodium acetate] | 1.1 | smallest effect of inhibiting freeze denaturation | 0.3 |  |  | 
5 | OC[C@@H](O)[C@@H](O)[C@H](O)[C@@H](O)CO [sorbitol] | 0.7 | smallest effect of inhibiting freeze denaturation, followed by sorbitol | 0.6 |  |  | not dissolved at all
